Experimental data reported in patent publication US8674096B2, “Substituted imidazo[1,5-a]quinoxalin-4-ones as phosphodiesterase 9 inhibitors” (priority 2009, dated 2014).

Test system: not given
Test: not given

| Compound | melting point |
| --- | --- |
| Cc1cc2c(cc1C(=O)N1CCc3cc(Cl)ccc31)[nH]c(=O)c1nnc(C3CCCOC3)n12.Cl (centres unmarked) [Example 281] | 298 to 301 °C |
| COc1cc2c(cc1C(=O)N1Cc3ccccc3C1)[nH]c(=O)c1nnc(C3CCOCC3)n12.Cl [Example 338] | 228 °C (dec.) |
| Cc1cc2c(cc1C(=O)N1Cc3ccccc3C1)[nH]c(=O)c1nnc(C3CCOCC3)n12 [Example 93] | 305 °C (dec.) |
| Cc1cc2c(cc1C(=O)N1CCc3cc(S(=O)(=O)N(C)C)ccc31)[nH]c(=O)c1cnc(C3CCOCC3)n12.Cl [Example 80] | 209 to 212 °C |
| Cc1cc2c(cc1C(=O)N1CCc3ccccc31)[nH]c(=O)c1cnc(C3CCCC3)n12 [Example 3, 1-cyclopentyl-7-(2,3-dihydro-1H-indol-1-ylcarbonyl)-8-methylimidazo[1,5-a]quinoxalin-4(5H)-one] | 291 °C (dec.) |
| Cc1cc2c(cc1C(=O)N1CCc3cc(Cl)ccc31)[nH]c(=O)c1cnc([C@H]3CC[C@@H](O)CC3)n12.Cl [Example 330] | 204 to 206 °C |
| O=C(c1cc2[nH]c(=O)c3cnc(C4CCOCC4)n3c2cc1Cl)N1CCc2cccnc21 [Example 279] | 275 °C (dec.) |
| Cc1cc2c(cc1C(=O)N1CCc3cc(F)c(F)cc31)[nH]c(=O)c1nnc(C3CCCC3)n12.Cl [Example 289] | 210 to 212 °C (dec.) |
| Cc1cc2c(cc1C(=O)N1CCc3c(Cl)cccc3C1)[nH]c(=O)c1nnc(C3CCCC3)n12 [Example 91] | 236 to 237 °C |
| Cc1cc2c(cc1C(=O)N1CCc3cc(Cl)ccc31)[nH]c(=O)c1cnc([C@H]3CC[C@H](C(N)=O)CC3)n12 [Example 528] | 234 to 237 °C |
| Cc1ccc2c(c1)CCN2C(=O)c1cc2[nH]c(=O)c3cnc(C4CCCOC4)n3c2cc1C.Cl (centres unmarked) | 204 to 206 °C |
| Cc1cc2c(cc1C(=O)N1CCc3c(Cl)cc(Cl)cc3C1)[nH]c(=O)c1cnc(C3CCOCC3)n12.Cl | 188 to 190 °C (dec.) |
| COc1cc2c(cn1)N(C(=O)c1cc3[nH]c(=O)c4nnc(C5CCOCC5)n4c3cc1C)CC2 | 271 °C (dec.) |
| O=C(c1ccc2c(c1)[nH]c(=O)c1nnc(C3CCOCC3)n12)N1Cc2ccccc2C1 | 303 °C (dec.) |
| Cc1cc2c(cc1C(=O)N1Cc3ccccc3C1)[nH]c(=O)c1cnc(C3CCCC3)n12 | 304 °C (dec.) |
| Cc1cc2c(cc1C(=O)N1Cc3cccc(F)c3C1)[nH]c(=O)c1cnc(C3CCOC3)n12.Cl (centres unmarked) | 203 to 205 °C |
| COc1cc2c(cc1C(=O)N1CCc3cc(C4CC4)cnc31)[nH]c(=O)c1cnc(C3CCOCC3)n12 | 297 °C (dec.) |
| Cc1cc2c(cc1C(=O)N1Cc3cccc(Cl)c3C1)[nH]c(=O)c1nnc(C3CCOCC3)n12 | 329 °C (dec.) |
| Cc1cc2c(cc1C(=O)N1CCc3cc(Br)cnc31)[nH]c(=O)c1nnc(C3CCC(F)(F)CC3)n12 | 343 °C (dec.) |
| Cc1cc2c(cc1C(=O)N1CCc3cc(F)c(Cl)cc31)[nH]c(=O)c1nnc(C3CCOCC3)n12.Cl | 316 to 319 °C |
| Cc1cc2c(cc1C(=O)N1CCc3c(Cl)cccc3C1)[nH]c(=O)c1nnc(C3CCOCC3)n12 | 269 °C (dec.) |
| Cc1cc2c(cc1C(=O)N1CCc3cc(Cl)ccc31)[nH]c(=O)c1cnc([C@@H]3CCC[C@@H]3O)n12 (racemic) [Example 343] | 238 to 240 °C |
| O=C(c1ccc2c(c1)[nH]c(=O)c1nnc(C3CCOCC3)n12)N1CCc2c(Cl)cccc2C1 | 318 °C (dec.) |
| Cc1cc2c(cc1C(=O)N1CCc3c(cc(-c4ccccc4)n3C)C1)[nH]c(=O)c1nnc(C3CCOCC3)n12 | 223 to 225 °C |
| Cl.O=C(c1cc2[nH]c(=O)c3cnc(C4CCOCC4)n3c2cc1Cl)N1Cc2ccccc2C1 | 332 °C (dec.) |
| Cc1cc2c(cc1C(=O)N1CCc3cc(Cl)ccc31)[nH]c(=O)c1nnc(C3CC(F)(F)C3)n12 | 243 to 245 °C |
| CCCc1nnc2c(=O)[nH]c3cc(C(=O)N4CCc5c(Cl)cccc5C4)ccc3n12 | 293 to 295 °C |

| Compound | melting point |
| --- | --- |
| Cc1cc2c(cc1C(=O)N1CCc3cc(F)ccc31)[nH]c(=O)c1nnc(C3CCC3)n12.Cl | 223 to 226 °C |
| Cc1cc2c(cc1C(=O)N1CCc3cc(F)ccc31)[nH]c(=O)c1nnc(C3CC(F)(F)C3)n12 | 234 to 235 °C |
| Cl.O=C(c1cc2[nH]c(=O)c3cnc(C4CCOCC4)n3c2cc1C1CC1)N1CCc2cc(F)ccc21 | 318 to 321 °C (dec.) |
| COc1cc2c(cc1C(=O)N1CCc3cc(F)ccc31)[nH]c(=O)c1cnc(C3CCOCC3)n12.Cl | 321 to 324 °C (dec.) |
| Cc1cc2c(cc1C(=O)N1CCc3cc(Cl)ccc31)[nH]c(=O)c1nnc(CC3CCSCC3)n12.Cl | 215 to 218 °C |
| Cc1cc2c(cc1C(=O)N1CCc3cccnc31)[nH]c(=O)c1cnc(C3CCOCC3)n12 | 341 °C (dec.) |
| Cc1cc2c(cc1C(=O)N1CCc3cccnc31)[nH]c(=O)c1nnc(C3CCC(F)(F)CC3)n12.Cl | 310 °C (dec.) |
| Cc1cc2c(cc1C(=O)N1CCc3onc(-c4ccc(F)cc4)c3C1)[nH]c(=O)c1nnc(C3CCOC3)n12 (centres unmarked) | 282 to 284 °C (dec.) |
| Cc1cc2c(cc1C(=O)N1CCc3cccc(C(=O)O)c3C1)[nH]c(=O)c1cnc(C3CCOCC3)n12.Cl | 212 to 213 °C |
| Cc1cc2c(cc1C(=O)N1CCc3cccnc31)[nH]c(=O)c1c(C)nc(C3CCOCC3)n12 | 192 °C (dec.) |
| CCCc1nnc2c(=O)[nH]c3cc(C(=O)N4Cc5ccc(F)cc5C4)ccc3n12 | 293 °C (dec.) |
| Cc1cc2c(cc1C(=O)N1Cc3ccccc3C1)[nH]c(=O)c1nnc(C3CCOC3)n12.Cl (centres unmarked) | 223 to 224 °C |
| CN(C)CCOc1cc2c(cc1C(=O)N1CCc3cc(Cl)ccc31)[nH]c(=O)c1cnc(C3CCOCC3)n12 | 219 to 221 °C (dec.) |
| Cc1cc2c(cc1C(=O)N1Cc3ccccc3C1)[nH]c(=O)c1c(C)nc(C3CCOCC3)n12.Cl | 335 °C (dec.) |
| Cc1cc2c(cc1C(=O)N1CCc3cc(Cl)ccc31)[nH]c(=O)c1nnc(C3CCOCC3)n12 | 335 to 336 °C |
| Cc1ccc2c(c1)CCN2C(=O)c1cc2[nH]c(=O)c3cnc(C4CCOCC4)n3c2cc1C.Cl | 282 to 284 °C |
| Cc1cc2c(cc1C(=O)N1CCc3cc(F)ccc31)[nH]c(=O)c1nnc(C3CCOCC3)n12.Cl | 221 to 223 °C |
| Cc1cc2c(cc1C(=O)N1CCc3c(Cl)cccc3C1)[nH]c(=O)c1nnc(-c3sccc3C)n12 | 310 to 312 °C |
| Cc1ccc2c(c1)CN(C(=O)c1cc3[nH]c(=O)c4cnc(C5CCOCC5)n4c3cc1C)C2 | 203 to 205 °C |
| Cc1cc2c(cc1C(=O)N1Cc3ccccc3C1)[nH]c(=O)c1nnc(C3CCC3)n12.Cl | 236 °C (dec.) |
| COc1cc2c(cc1C(=O)N1Cc3cccc(F)c3C1)[nH]c(=O)c1cnc(C3CCOCC3)n12.Cl | 195 to 197 °C |
| Cc1cc2c(cc1C(=O)N1CCOC(c3ccccc3)C1)[nH]c(=O)c1cnc(C3CCCC3)n12 (centres unmarked) | 304 to 305 °C |
| Cc1cc2c(cc1C(=O)N1CCN(C)C(c3ccccc3)C1)[nH]c(=O)c1cnc(C3CCCC3)n12 (centres unmarked) | 246 to 248 °C |
| Cc1cc2c(cc1C(=O)N1CCc3cc(Cl)ccc31)[nH]c(=O)c1nnc(C3CCC3)n12.Cl | 225 to 228 °C |
| Cc1cc2c(cc1C(=O)N1CCc3cc(Br)cnc31)[nH]c(=O)c1cnc([C@H]3CC[C@@H](O)CC3)n12.Cl | 305 to 307 °C |
| Cc1cc2c(cc1C(=O)N1CCc3cc(F)ccc31)[nH]c(=O)c1nnc(C3CCCOC3)n12.Cl (centres unmarked) | 235 to 237 °C |

Target: T1, PDE9 (Homo sapiens, UniProt O76083)
T1 construct: made in house
T1 sequence (O76083 whole entry): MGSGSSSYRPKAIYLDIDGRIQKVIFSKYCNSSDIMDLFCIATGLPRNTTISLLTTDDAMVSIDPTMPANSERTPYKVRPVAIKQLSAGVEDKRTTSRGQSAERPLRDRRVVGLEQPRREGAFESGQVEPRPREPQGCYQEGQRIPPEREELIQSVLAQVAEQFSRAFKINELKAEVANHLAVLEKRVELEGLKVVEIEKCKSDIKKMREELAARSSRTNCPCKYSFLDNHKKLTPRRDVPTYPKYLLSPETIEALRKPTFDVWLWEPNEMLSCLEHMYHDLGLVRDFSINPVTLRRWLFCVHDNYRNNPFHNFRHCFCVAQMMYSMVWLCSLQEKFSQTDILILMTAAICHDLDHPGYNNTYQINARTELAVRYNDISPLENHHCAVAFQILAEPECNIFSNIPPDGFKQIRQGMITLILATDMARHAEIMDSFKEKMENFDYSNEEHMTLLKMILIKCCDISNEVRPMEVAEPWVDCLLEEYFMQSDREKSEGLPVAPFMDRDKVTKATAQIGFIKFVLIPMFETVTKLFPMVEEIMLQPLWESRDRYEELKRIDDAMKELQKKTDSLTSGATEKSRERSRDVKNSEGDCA
Test: PDE9-inhibiting activity (SPA, 3H-cGMP degradation)
Assay type: biochemical
Method: The PDE9 used in the present experiment was expressed/purified by the method as in, for example, Guipponi et al., and Fisher et., al. (Fisher, D. A., et al., J. Biol. Chem., 273: pp. 15559-15564 (1998), Guipponi, M., et al., Hum. Genet., 103: pp. 386-392 (1998)).
The PDE9-inhibiting activity was measured by the following method. That is, to a buffer solution containing tris(hydroxymethyl)aminomethane-hydrochloric acid (40 mM, pH 8.0), magnesium chloride (5 mM), and 2-mercaptoethanol (4 mM) were added cGMP (1 μM) and ^3H-cGMP (0.33 μCi/ml) to give a substrate buffer solution. A test substance solution and an enzyme solution which had been adjusted to an optimal concentration were added thereto to perform a reaction at 30° C. The enzyme reaction was stopped by the addition of Scintillation Proximity Assay (SPA) Beads (GE Healthcare, UK) containing 5 mM 3-isobutyl-1-methylxanthine (IBMX). For the enzyme activity, the amount of 5′-GMP, which is a reaction degradation product bound to SPA beads, was measured with a TopCount microplate reader (Hewlett Packard, USA).
The inhibitory rate was calculated by taking the radioactivity of the control containing no test substance as (A), taking the radioactivity of the blank containing no enzyme as (B), and taking the radioactivity of the test substance as (C), and using the following equation. Inhibitory rate=100−{(C)−(B)/(A)−(B)}×100(%)

| Compound | IC50 |
| --- | --- |
| Cc1cc2c(cc1C(=O)N1CCc3ccccc3C1c1ccncc1)[nH]c(=O)c1nnc(-c3ccc(O)c(Cl)c3)n12 (centres unmarked) [Example 5, 1-(3-chloro-4-hydroxyphenyl)-8-methyl-7-[(1-pyridin-4-yl-3,4-dihydroisoquinolin-2(1H)-yl)carbonyl][1,2,4]triazolo[4,3-a]quinoxalin-4(5H)-one] | 2.3 nM |
| Cc1cc2c(cc1C(=O)N1CCc3cc(Cl)ccc31)[nH]c(=O)c1nnc(C3CCCOC3)n12.Cl (centres unmarked) [Example 281] | 1.6 nM |
| COc1cc2c(cc1C(=O)N1Cc3ccccc3C1)[nH]c(=O)c1nnc(C3CCOCC3)n12.Cl [Example 338] | 28 nM |
| Cc1cc2c(cc1C(=O)N1Cc3ccccc3C1)[nH]c(=O)c1nnc(C3CCOCC3)n12 [Example 93] | 15 nM |
| Cc1cc2c(cc1C(=O)N1CCc3cc(S(=O)(=O)N(C)C)ccc31)[nH]c(=O)c1cnc(C3CCOCC3)n12.Cl [Example 80] | 2.6 nM |
| Cc1cc2c(cc1C(=O)N1CCc3ccccc31)[nH]c(=O)c1cnc(C3CCCC3)n12 [Example 3, 1-cyclopentyl-7-(2,3-dihydro-1H-indol-1-ylcarbonyl)-8-methylimidazo[1,5-a]quinoxalin-4(5H)-one] | 6.7 nM |
| Cc1cc2c(cc1C(=O)N1CCc3cc(Cl)ccc31)[nH]c(=O)c1cnc([C@H]3CC[C@@H](O)CC3)n12.Cl [Example 330] | 1.2 nM |
| O=C(c1cc2[nH]c(=O)c3cnc(C4CCOCC4)n3c2cc1Cl)N1CCc2cccnc21 [Example 279] | 10 nM |
| Cc1cc2c(cc1C(=O)N1CCc3cc(F)c(F)cc31)[nH]c(=O)c1nnc(C3CCCC3)n12.Cl [Example 289] | 3.9 nM |
| Cc1cc2c(cc1C(=O)N1CCc3c(Cl)cccc3C1)[nH]c(=O)c1nnc(C3CCCC3)n12 [Example 91] | 20 nM |
| Cc1cc2c(cc1C(=O)N1CCc3cc(Cl)ccc31)[nH]c(=O)c1cnc([C@H]3CC[C@H](C(N)=O)CC3)n12 [Example 528] | 0.9 nM |
| Cc1cc2c(cc1C(=O)N1CCc3cc(Cl)c(F)cc31)[nH]c(=O)c1nnc(C3CCCC3)n12 [Example 324] | 1.7 nM |
| Cc1cc2c(cc1C(=O)N1CCc3cc(Br)cnc31)[nH]c(=O)c1nnc(C3CC(F)(F)C3)n12 [Example 346] | 27 nM |
| Cc1cc2c(cc1C(=O)N1CCc3cc(F)ccc31)[nH]c(=O)c1cnc(C3CCCOC3)n12 (centres unmarked) [Example 318] | 5.9 nM |
| Cc1cc2c(cc1C(=O)N1CCc3nc4ncccc4cc3C1)[nH]c(=O)c1cnc(C3CCOCC3)n12 [Example 71] | 9.2 nM |
| Cc1cc2c(cc1C(=O)N1CC(C)(C)c3cc(Cl)ccc31)[nH]c(=O)c1cnc(C3CCOCC3)n12 [Example 516] | 0.8 nM |
| Cc1cc2c(cc1C(=O)N1CCc3cc(F)cnc31)[nH]c(=O)c1nnc(C3CCOCC3)n12 [Example 352] | 12 nM |
| CCCc1nnc2c(=O)[nH]c3cc(C(=O)N(C)Cc4cccc(Cl)c4)ccc3n12 [Example 134] | 950 nM |
